Experimental data from patent US7396837B2, “Antitumoral analogs of lamellarins” (Pharma Mar, S.A.U., priority 2002, dated 2008).
Like-named read-outs stand apart in the source and are kept apart here.

Columns and labels:
Type in all cases: cell-based
SK-BR-3 = experiment: SRB colorimetric cell growth inhibition assay, SK-BR-3; conditions: for GI50: GI=growth inhibition, read-out: GI50 SK-BR-3; for CC50: cell killing (cytotoxic effect), read-out: LC50 SK-BR-3
From the text: (§1) The finality of these assays is to interrupt the growth of an “in vitro” tumor cell culture by means a continued exhibition of the cells to the sample to be testing.
(§2) A colorimetric type of assay, using sulforhodamine B (SRB) reaction has been adapted for a quantitative measurement of cell growth and viability (following the technique described by P. A. Skehan, et al., J. Natl. Cancer Inst. 1990, 82, 1107-1112).
(§3) This form of assay employs 96 well cell culture microplates of 9 mm diameter (T. Mosmann et al., J. of Immunological Methods 1983, 65, 55-63; G. T. Faircloth et al., J. of Tissue and Culture Methods 1988, 11, 201-205).
(§4) Most of the cell lines are obtained from American Type Culture Collection (ATCC) derived from different human cancer types.
(§5) The values for mean +/− SD of data from triplicate wells are calculated. Some parameters for cellular responses can be calculated: GI=growth inhibition, TGI=total growth inhibition (cytostatic effect) and LC=cell killing (cytotoxic effect).

LoVo-Dox = experiment: SRB colorimetric cell growth inhibition assay, LoVo-Dox (MDR); conditions: LOVO-DOX; for GI50: GI=growth inhibition, read-out: GI50 LOVO-DOX; for CC50: cell killing (cytotoxic effect), read-out: LC50 LOVO-DOX
From the text: as §1, §2, §3, §4, §5

DU-145 = experiment: SRB colorimetric cell growth inhibition assay, DU-145; conditions: for CC50: cell killing (cytotoxic effect), read-out: LC50 DU-145; for GI50: GI=growth inhibition, read-out: GI50 DU-145
From the text: as §1, §2, §3, §4, §5

PANC-1 = experiment: SRB colorimetric cell growth inhibition assay, PANC-1; conditions: for GI50: GI=growth inhibition, read-out: GI50 PANC-1; for CC50: cell killing (cytotoxic effect), read-out: LC50 PANC-1
From the text: as §1, §2, §3, §4, §5

HT-29 = experiment: SRB colorimetric cell growth inhibition assay, HT-29; conditions: for GI50: GI=growth inhibition, read-out: GI50 HT-29; for CC50: cell killing (cytotoxic effect), read-out: LC50 HT-29
From the text: as §1, §2, §3, §4, §5

IGROV-ET = experiment: SRB colorimetric cell growth inhibition assay, IGROV-ET (ET-743 resistant); conditions: IGROV-ET; for GI50: GI=growth inhibition, read-out: GI50 IGROV-ET; for CC50: cell killing (cytotoxic effect), read-out: LC50 IGROV-ET
From the text: as §1, §2, §3, §4, §5

HeLa-APL = experiment: SRB colorimetric cell growth inhibition assay, HeLa-APL (aplidine resistant); conditions: Homo sapiens; for GI50: read-out: GI50 HELA-APL; for CC50: read-out: LC50 HELA-APL; for IC (TGI): read-out: TGI HELA-APL
From the text: as §1, §2, §3, §4, §5

A-549 = experiment: SRB colorimetric cell growth inhibition assay, A-549; conditions: for GI50: GI=growth inhibition, read-out: GI50 A-549; for CC50: cell killing (cytotoxic effect), read-out: LC50 A-549; for IC (TGI): total growth inhibition (cytostatic effect), read-out: TGI A-549
From the text: as §1, §2, §3, §4, §5

HeLa = experiment: SRB colorimetric cell growth inhibition assay, HeLa; conditions: Homo sapiens, HeLa; for CC50: read-out: LC50 HELA; for IC (TGI): read-out: TGI HELA; for GI50: GI=growth inhibition, read-out: GI50 HELA
From the text: as §1, §2, §3, §4, §5

LoVo = experiment: SRB colorimetric cell growth inhibition assay, LoVo; conditions: for GI50: GI=growth inhibition, read-out: GI50 LOVO; for CC50: cell killing (cytotoxic effect), read-out: LC50 LOVO
From the text: as §1, §2, §3, §4, §5

IGROV = experiment: SRB colorimetric cell growth inhibition assay, IGROV; conditions: IGROV; for GI50: GI=growth inhibition, read-out: GI50 IGROV; for CC50: cell killing (cytotoxic effect), read-out: LC50 IGROV
From the text: as §1, §2, §3, §4, §5

SK-MEL-28 = experiment: SRB colorimetric cell growth inhibition assay, SK-MEL-28; conditions: for GI50: GI=growth inhibition, read-out: GI50 MEL-28; for CC50: cell killing (cytotoxic effect), read-out: LC50 MEL-28
From the text: as §1, §2, §3, §4, §5

[1] = total growth inhibition (cytostatic effect)
[2] = Homo sapiens, SK-MEL-28, MEL-28

With `COc1cc2ccn3c(c(-c4ccc(OC(=O)[C@@H](N)Cc5ccccc5)c(OC)c4)c4c5cc(OC)c(OC(=O)[C@@H](N)Cc6ccccc6)cc5oc(=O)c43)c2cc1OC` [Compound 13] the GI50 (SK-BR-3; SK-BR-3) was 0.0454 µM, the CC50 (SK-BR-3; SK-BR-3) was 10.2 µM and the “TGI SK-BR-3” value (SK-BR-3; SK-BR-3, total growth inhibition (cytostatic effect)) was 1.13E−07 Molar. For the same compound, the GI50 (LoVo-Dox) was 0.675 µM, the CC50 (LoVo-Dox) was 12.4 µM and the “TGI LOVO-DOX” value (LoVo-Dox; [1]) was 3.42E−06 Molar. For the same compound, the CC50 (DU-145; DU-145) was 12.4 µM, the “TGI DU-145” value (DU-145; DU-145, total growth inhibition (cytostatic effect)) was 3.64E−06 Molar and the GI50 (DU-145; Homo sapiens, DU-145, DU-145) was 0.832 µM. The GI50 (PANC-1; PANC-1) was 2.43 µM, the CC50 (PANC-1; PANC-1) was 12.4 µM and the “TGI PANC-1” value (PANC-1; PANC-1, total growth inhibition (cytostatic effect)) was 1.24E−05 Molar. The GI50 (HT-29; HT-29) was 3.22 µM, the CC50 (HT-29; HT-29) was 12.4 µM and the “TGI HT-29” value (HT-29; HT-29, total growth inhibition (cytostatic effect)) was 6.39E−06 Molar. For the same compound, the GI50 (IGROV-ET; Homo sapiens) was 1.96 µM, the CC50 (IGROV-ET) was 12.4 µM and the “TGI IGROV-ET” value (IGROV-ET; [1]) was 7.86E−06 Molar. It also gave a GI50 (HeLa-APL) of 2.6 µM, a CC50 (HeLa-APL) of 12.4 µM and an IC (TGI) (HeLa-APL) of 12.1 µM. The GI50 (A-549; A-549) was 0.906 µM, the CC50 (A-549; A-549) was 12.4 µM and the IC (TGI) (A-549; Homo sapiens, A549, A-549) was 12.4 µM. For the same compound, the CC50 (HeLa) was 12.4 µM, the IC (TGI) (HeLa) was 9.63 µM and the GI50 (HeLa) was 1.83 µM. The GI50 (LoVo; LOVO) was 0.754 µM, the CC50 (LoVo; LOVO) was 9.02 µM and the “TGI LOVO” value (LoVo; LOVO, total growth inhibition (cytostatic effect)) was 2.35E−06 Molar. For the same compound, the GI50 (IGROV; Homo sapiens) was 1.29 µM, the CC50 (IGROV) was 12.4 µM and the “TGI IGROV” value (IGROV; [1]) was 4.79E−06 Molar. For the same compound, the GI50 (SK-MEL-28; MEL-28) was 3.11 µM, the CC50 (SK-MEL-28; MEL-28) was 12.4 µM and the “TGI MEL-28” value (SK-MEL-28; MEL-28, total growth inhibition (cytostatic effect)) was 1.09E−05 Molar.

`COc1cc(-c2c3c4cc(OC)c(OC(C)C)cc4oc(=O)c3n3ccc4c(OC(C)C)c(OC)c(OC)cc4c23)ccc1OC(C)C` [Compound 27] showed a GI50 (SK-BR-3; Homo sapiens, SK-BR-3, SK-BR-3) of 0.881 µM, a CC50 (SK-BR-3; Homo sapiens, SK-BR-3, SK-BR-3) of 14.1 µM and an IC (TGI) (SK-BR-3; Homo sapiens, SK-BR-3, SK-BR-3, total growth inhibition (cytostatic effect), read-out: TGI SK-BR-3) of 3.25 µM. It also gave a GI50 (LoVo-Dox; Homo sapiens) of 15.2 µM, a CC50 (LoVo-Dox; Homo sapiens) of 15.2 µM and an IC (TGI) (LoVo-Dox; Homo sapiens, total growth inhibition (cytostatic effect), read-out: TGI LOVO-DOX) of 15.2 µM. The GI50 (DU-145; Homo sapiens, DU-145, DU-145) was 0.976 µM, the CC50 (DU-145; Homo sapiens, DU-145, DU-145) was 12.6 µM and the IC (TGI) (DU-145; Homo sapiens, DU-145, DU-145, total growth inhibition (cytostatic effect), read-out: TGI DU-145) was 3.95 µM. It also gave a GI50 (PANC-1; Homo sapiens, PANC-1, PANC-1) of 4.41 µM, a CC50 (PANC-1; Homo sapiens, PANC-1, PANC-1) of 15.2 µM and an IC (TGI) (PANC-1; Homo sapiens, PANC-1, PANC-1, total growth inhibition (cytostatic effect), read-out: TGI PANC-1) of 13 µM. For the same compound, the GI50 (HT-29; Homo sapiens, HT-29, HT-29) was 0.144 µM, the CC50 (HT-29; Homo sapiens, HT-29, HT-29) was 15.2 µM and the IC (TGI) (HT-29; Homo sapiens, HT-29, HT-29, total growth inhibition (cytostatic effect), read-out: TGI HT-29) was 2.17 µM. It also gave a GI50 (IGROV-ET; Homo sapiens) of 10.4 µM, a CC50 (IGROV-ET; Homo sapiens) of 15.2 µM and an IC (TGI) (IGROV-ET; Homo sapiens, total growth inhibition (cytostatic effect), read-out: TGI IGROV-ET) of 15.2 µM. It also gave a GI50 (HeLa-APL; HELA-APL, GI=growth inhibition) of 13 µM, a CC50 (HeLa-APL; HELA-APL, cell killing (cytotoxic effect)) of 15.2 µM and an IC (TGI) (HeLa-APL; HELA-APL, total growth inhibition (cytostatic effect)) of 15.2 µM. For the same compound, the GI50 (A-549; Homo sapiens, A549, A-549) was 5.49 µM, the CC50 (A-549; Homo sapiens, A549, A-549) was 15.2 µM and the IC (TGI) (A-549; Homo sapiens, A549, A-549) was 15.2 µM. The GI50 (HeLa) was 4.04 µM, the CC50 (HeLa; cell killing (cytotoxic effect)) was 15.2 µM and the IC (TGI) (HeLa; [1]) was 9.47 µM. The GI50 (LoVo; Homo sapiens, LoVo) was 0.27 µM, the CC50 (LoVo; Homo sapiens, LoVo) was 15.2 µM and the IC (TGI) (LoVo; Homo sapiens, LoVo, total growth inhibition (cytostatic effect), read-out: TGI LOVO) was 2.17 µM. It also gave a GI50 (IGROV; Homo sapiens) of 1.15 µM, a CC50 (IGROV; Homo sapiens) of 15.2 µM and an IC (TGI) (IGROV; Homo sapiens, total growth inhibition (cytostatic effect), read-out: TGI IGROV) of 5.06 µM. The GI50 (SK-MEL-28; [2]) was 4.47 µM, the CC50 (SK-MEL-28; [2]) was 15.2 µM and the IC (TGI) (SK-MEL-28; Homo sapiens, SK-MEL-28, MEL-28, total growth inhibition (cytostatic effect), read-out: TGI MEL-28) was 9.35 µM.
